Measurements taken from PubChem BioAssay (NCI).
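Here, GI50 denotes the concentration required for 50% inhibition of growth. The concentration for full growth arrest is given as TGI.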

Key:
Assay in all cases: growth of human tumour cells (NCI), 384-well format
BT-549 breast = test system: BT-549 breast
CAKI-1 renal = test system: CAKI-1 renal
NCI-H23 lung = test system: NCI-H23 lung
LOX IMVI melanoma = test system: LOX IMVI melanoma
MDA-MB-435 melanoma = test system: MDA-MB-435 melanoma
HL-60(TB) leukemia = test system: HL-60(TB) leukemia
CCRF-CEM leukemia = test system: CCRF-CEM leukemia
RPMI-8226 leukemia = test system: RPMI-8226 leukemia
SR leukemia = test system: SR leukemia
MDA-MB-468 breast = test system: MDA-MB-468 breast
NCI-H522 lung = test system: NCI-H522 lung
OVCAR-4 ovarian = test system: OVCAR-4 ovarian
PC-3 prostate = test system: PC-3 prostate
T-47D breast = test system: T-47D breast
HT29 colon = test system: HT29 colon
NCI-H322M lung = test system: NCI-H322M lung
RXF 393 renal = test system: RXF 393 renal
SF-295 CNS = test system: SF-295 CNS
SNB-19 CNS = test system: SNB-19 CNS
SK-MEL-5 melanoma = test system: SK-MEL-5 melanoma
MALME-3M melanoma = test system: MALME-3M melanoma
NCI-H226 lung = test system: NCI-H226 lung
HCC-2998 colon = test system: HCC-2998 colon
SF-539 CNS = test system: SF-539 CNS
SK-MEL-28 melanoma = test system: SK-MEL-28 melanoma
SW-620 colon = test system: SW-620 colon
IGROV1 ovarian = test system: IGROV1 ovarian
KM12 colon = test system: KM12 colon
MCF7 breast = test system: MCF7 breast
EKVX NSCLC = test system: EKVX NSCLC
OVCAR-3 ovarian = test system: OVCAR-3 ovarian
OVCAR-8 ovarian = test system: OVCAR-8 ovarian
NCI-H460 NSCLC = test system: NCI-H460 NSCLC
COLO 205 colon = test system: COLO 205 colon
HS 578T breast = test system: HS 578T breast
786-0 renal = test system: 786-0 renal
MDA-MB-231 breast = test system: MDA-MB-231 breast
UO-31 renal = test system: UO-31 renal
OVCAR-5 ovarian = test system: OVCAR-5 ovarian
HOP-62 NSCLC = test system: HOP-62 NSCLC
A549 NSCLC = test system: A549 NSCLC
DU-145 prostate = test system: DU-145 prostate
U251 glioblastoma = test system: U251 glioblastoma
M14 melanoma = test system: M14 melanoma
HCT-116 colon = test system: HCT-116 colon
NCI/ADR-RES ovarian = test system: NCI/ADR-RES ovarian
SN12C renal = test system: SN12C renal
UACC-62 melanoma = test system: UACC-62 melanoma
ACHN renal = test system: ACHN renal
A498 renal = test system: A498 renal
SF-268 CNS = test system: SF-268 CNS
HOP-92 NSCLC = test system: HOP-92 NSCLC
MOLT-4 leukemia = test system: MOLT-4 leukemia
SNB-75 CNS = test system: SNB-75 CNS
SK-OV-3 ovarian = test system: SK-OV-3 ovarian
HCT-15 colon = test system: HCT-15 colon
TK-10 renal = test system: TK-10 renal
UACC-257 melanoma = test system: UACC-257 melanoma

Work on `CN1CCN(c2ccc(Nc3ncc4cc5n(c4n3)C3(CCCCC3)CNC5=O)nc2)CC1` yielded a GI50 (BT-549 breast) of 2 µM, a TGI (BT-549 breast) of 3.9 µM and a GI50 (CAKI-1 renal) of 1.21 µM. For the same compound, the TGI (CAKI-1 renal) was > 40.5 µM, the GI50 (NCI-H23 lung) was 1.81 µM and the TGI (NCI-H23 lung) was 3.83 µM. For the same compound, the GI50 (LOX IMVI melanoma) was 0.993 µM, the TGI (LOX IMVI melanoma) was 3.02 µM and the GI50 (MDA-MB-435 melanoma) was 4.34 µM. The TGI (MDA-MB-435 melanoma) was 24.8 µM, the GI50 (HL-60(TB) leukemia) was 0.139 µM and the TGI (HL-60(TB) leukemia) was 1.77 µM. For the same compound, the GI50 (CCRF-CEM leukemia) was 0.399 µM, the TGI (CCRF-CEM leukemia) was 1.81 µM and the GI50 (RPMI-8226 leukemia) was 0.245 µM. For the same compound, the TGI (RPMI-8226 leukemia) was 1.5 µM, the GI50 (SR leukemia) was 0.0408 µM and the TGI (SR leukemia) was 0.196 µM. For the same compound, the GI50 (MDA-MB-468 breast) was 4.26 µM, the TGI (MDA-MB-468 breast) was 10.8 µM and the GI50 (NCI-H522 lung) was 7.65 µM. It also gave a TGI (NCI-H522 lung) of 18.9 µM, a GI50 (OVCAR-4 ovarian) of 5.31 µM and a TGI (OVCAR-4 ovarian) of 14.6 µM. For the same compound, the GI50 (PC-3 prostate) was 2.71 µM, the TGI (PC-3 prostate) was > 39 µM and the GI50 (T-47D breast) was 7.74 µM. It also gave a TGI (T-47D breast) of 23.3 µM, a GI50 (HT29 colon) of 1.46 µM and a TGI (HT29 colon) of 12.1 µM. It also gave a GI50 (NCI-H322M lung) of 2.17 µM, a TGI (NCI-H322M lung) of 7.5 µM and a GI50 (RXF 393 renal) of 2.15 µM. For the same compound, the TGI (RXF 393 renal) was 4.02 µM, the GI50 (SF-295 CNS) was 1.75 µM and the TGI (SF-295 CNS) was 7.59 µM. The GI50 (SNB-19 CNS) was 3.99 µM, the TGI (SNB-19 CNS) was > 52.6 µM and the GI50 (SK-MEL-5 melanoma) was 2.39 µM. For the same compound, the TGI (SK-MEL-5 melanoma) was 12.7 µM, the GI50 (MALME-3M melanoma) was 1.45 µM and the TGI (MALME-3M melanoma) was 4.22 µM. It also gave a GI50 (NCI-H226 lung) of 0.362 µM, a TGI (NCI-H226 lung) of 4.23 µM and a GI50 (HCC-2998 colon) of 2.35 µM. It also gave a TGI (HCC-2998 colon) of 5.48 µM, a GI50 (SF-539 CNS) of 1.75 µM and a TGI (SF-539 CNS) of 3.44 µM. For the same compound, the GI50 (SK-MEL-28 melanoma) was 2.47 µM, the TGI (SK-MEL-28 melanoma) was 14.5 µM and the GI50 (SW-620 colon) was 1.09 µM. For the same compound, the TGI (SW-620 colon) was 10.2 µM, the GI50 (IGROV1 ovarian) was 4.12 µM and the TGI (IGROV1 ovarian) was > 100 µM. It also gave a GI50 (KM12 colon) of 1.34 µM, a TGI (KM12 colon) of 14.3 µM and a GI50 (MCF7 breast) of 1.39 µM. It also gave a TGI (MCF7 breast) of 9.19 µM, a GI50 (EKVX NSCLC) of 3.11 µM and a TGI (EKVX NSCLC) of 11 µM. For the same compound, the GI50 (OVCAR-3 ovarian) was 3.05 µM, the TGI (OVCAR-3 ovarian) was 7.81 µM and the GI50 (OVCAR-8 ovarian) was 3.57 µM. The TGI (OVCAR-8 ovarian) was 10.5 µM, the GI50 (NCI-H460 NSCLC) was 1.33 µM and the TGI (NCI-H460 NSCLC) was 3.74 µM. It also gave a GI50 (COLO 205 colon) of 0.844 µM, a TGI (COLO 205 colon) of 5.67 µM and a GI50 (HS 578T breast) of 2.09 µM. For the same compound, the TGI (HS 578T breast) was 4.09 µM, the GI50 (786-0 renal) was 2.34 µM and the TGI (786-0 renal) was > 100 µM. For the same compound, the GI50 (MDA-MB-231 breast) was 0.796 µM, the TGI (MDA-MB-231 breast) was 3.23 µM and the GI50 (UO-31 renal) was 1.36 µM. The TGI (UO-31 renal) was > 23.3 µM, the GI50 (OVCAR-5 ovarian) was 2.04 µM and the TGI (OVCAR-5 ovarian) was > 100 µM. It also gave a GI50 (HOP-62 NSCLC) of 1.99 µM, a TGI (HOP-62 NSCLC) of 6.75 µM and a GI50 (A549 NSCLC) of 1.65 µM. The TGI (A549 NSCLC) was 9.44 µM, the GI50 (DU-145 prostate) was 3.22 µM and the TGI (DU-145 prostate) was 9.41 µM. It also gave a GI50 (U251 glioblastoma) of 3.14 µM, a TGI (U251 glioblastoma) of 15.2 µM and a GI50 (M14 melanoma) of 1.48 µM. It also gave a TGI (M14 melanoma) of 4.85 µM, a GI50 (HCT-116 colon) of 1.41 µM and a TGI (HCT-116 colon) of 5.38 µM. The GI50 (NCI/ADR-RES ovarian) was 8.49 µM, the TGI (NCI/ADR-RES ovarian) was 23.8 µM and the GI50 (SN12C renal) was 1.83 µM. For the same compound, the TGI (SN12C renal) was 7.87 µM, the GI50 (UACC-62 melanoma) was 1.69 µM and the TGI (UACC-62 melanoma) was 7.78 µM. For the same compound, the GI50 (ACHN renal) was 1.63 µM, the TGI (ACHN renal) was > 100 µM and the GI50 (A498 renal) was 3.03 µM. For the same compound, the TGI (A498 renal) was 14.5 µM, the GI50 (SF-268 CNS) was 1.81 µM and the TGI (SF-268 CNS) was 4.14 µM. The GI50 (HOP-92 NSCLC) was 2.28 µM, the TGI (HOP-92 NSCLC) was > 24.2 µM and the GI50 (MOLT-4 leukemia) was 0.116 µM. It also gave a TGI (MOLT-4 leukemia) of 0.931 µM, a GI50 (SNB-75 CNS) of 1.89 µM and a TGI (SNB-75 CNS) of 4.35 µM. For the same compound, the GI50 (SK-OV-3 ovarian) was 5.23 µM, the TGI (SK-OV-3 ovarian) was > 42.6 µM and the GI50 (HCT-15 colon) was 2.14 µM. The TGI (HCT-15 colon) was 9.25 µM, the GI50 (TK-10 renal) was 2.94 µM and the TGI (TK-10 renal) was 15.3 µM. It also gave a GI50 (UACC-257 melanoma) of 5.59 µM and a TGI (UACC-257 melanoma) of 17.4 µM.
